From publication PMC6493465 (Oncotarget, 2019)

What was measured:
MOLM-13 cells = test: Antitumor effects in mice xenografted with MOLM-13 cells; type: in vivo, mouse; conditions: MOLM-13 xenograft
Method: (§1) Four or five-week-old male nude mice (CanN.Cg-Foxn1nu/Crl/Crlj[nu/nu]; Charles River Laboratories Japan, Inc., Kanagawa, Japan) were maintained under specific pathogen-free conditions and received a standard diet and water supply throughout the study. All animal experimental procedures were performed in accordance with the Animal Ethics Committee of Astellas Pharma, Inc. For in vivo experiments, suspensions of MV4-11 and MOLM-13 cells in PBS at a concentration of 1 × 10^8 cells/mL were mixed with an equivalent volume of Matrigel® Basement Membrane Matrix, resulting in a final cell concentration of 5 × 10^7 cells/mL. The cells were subcutaneously injected into the flanks of mice at a concentration of 5 × 10^6 cells/0.1 mL/mouse. After tumor establishment, mice were divided into groups with similar mean tumor volume across groups.
(§2) Dosing volumes were 10 mL/kg for oral and intraperitoneal (IP) administration, and 5 or 10 mL/kg for intravenous (IV) administration. Treatment was administered once daily on designated days. The first day of treatment was designated as Day 0 and observation continued until Day 20 or 21 for mice xenografted with MV4-11 cells and Day 16 for mice xenografted with MOLM-13 cells. In mice xenografted with MV4-11 cells for experiments involving triple combination treatment, the control group received oral administration of vehicle (0.5% methylcellulose, Days 0–20), IP administration of vehicle (saline, Days 0–4), and IV administration of vehicle (saline, Days 0–2).
(§3) Mice with established tumors were selected and divided into groups on Day −1 or Day 0, so that the mean tumor volumes were similar across groups. Body weights and tumor volumes assessed on Day −1 were designated as Day 0 values. Body weight and tumor diameter were measured for each experimental group; antitumor activity was expressed as the percent inhibition of tumor growth and the percent of tumor regression (further details are outlined in the Supplementary Materials). […] Complete regression was defined as no palpable or observable tumor. […]
www.oncotarget.com Oncotarget, Supplementary Materials […]
Body weight and tumor diameter were measured group on Day 0]) in xenografted nude mice xenografted with MV4-11 cells on the indicated days for each experimental group: 1. […]
(§4) Tumor diameter was measured using a caliper and tumor 0.5% methylcellulose); 2. Oral methylcellulose (0.5%) in volume was determined by calculating the volume of an combination with IV IDR (0.5 mg/kg) and IP AraC (50 ellipsoid (ie, Length × Width2 × 0.5). The percent inhibition mg/kg); 3. […]
of tumor growth was calculated using the formula: kg) and IP AraC (50 mg/kg). […]
(§5) The percent tumor regression was calculated using […]

MV4-11 cells [1] = test: Antitumor effects in mice xenografted with MV4-11 cells; type: in vivo, mouse; conditions: MV4-11 xenograft; for Regression of Tumor / Inhibition of Tumor Growth: Day 21
Method: as §1, §2
The AraC/DNR group received oral vehicle (0.5% methylcellulose, Days 0–20), IP AraC (50 mg/kg/day, Days 0–4), and IV DNR (2 mg/kg/day, Days 0–2). The AraC/IDR group received vehicle (Days 0–20), IP AraC (50 mg/kg/day, Days 0–4), and IV IDR (0.5 mg/kg/day, Days 0–2). […] For experiments involving Aza, the control group received oral vehicle (0.5% methylcellulose, Days 0–20) and IV vehicle (saline, Days 0–4). The Aza group received oral vehicle (0.5% methylcellulose, Days 0–20) and IV Aza (3 mg/kg/day, Days 0–4). […] For mice that received chemotherapy only, administration schedules for each agent were the same as those described in the triple combination groups.
as §3
Tumor evaluation 100 × (1 – [mean tumor volume of each group on the last day of observation] / [mean tumor volume of each
Body weight and tumor diameter were measured group on Day 0]) in xenografted nude mice xenografted with MV4-11 cells on the indicated days for each experimental group: 1. Treatments for pharmacokinetic assays […]
and 21. Body weight and tumor assessments obtained on with MV4-11 cells received one of the following Day −1 were designated as Day 0 (baseline) measurements. combination treatments: 1.
as §4
of tumor growth was calculated using the formula: kg) and IP AraC (50 mg/kg). For combination PK assays […]
on the last day of observation) – (tumor volume of each with MV4-11 received one of the following: […]
of each mouse on the last day of observation) – (tumor methylcellulose (0.5%) plus IV Aza (3 mg/kg); 3. Oral […]
as §5

MV4-11 cells [2] = test: Cell cycle analysis; type: cell-based, human; conditions: 24 hours, control 59.8%
Method: MV4-11 cells were seeded in 12-well plates (AGC Techno Glass Co. Ltd., Shizuoka, Japan) at a concentration of 2 × 10^5 cells/well and cultured overnight.
The cells were subsequently harvested and fixed in ice-cold 70% ethanol and maintained at 4°C. Following fixation, the cells were washed with phosphate-buffered saline (PBS) and were resuspended in Guava® Cell Cycle Reagent (Merck Millipore Corporation, Darmstadt, Germany). Cell cycle distribution was measured using a Guava® PCA microcytometer (Merck Millipore Corporation), and was analyzed in 5000 cells per sample using CytoSoft™ software (Merck Millipore Corporation). The mean percentages of cells in sub-G1, G1, S, and G2/M phases were derived from four independent assays.

MV4-11 cells [3] = test: Annexin-V staining (apoptosis), MV4-11; type: cell-based, human; conditions: gilteritinib alone 3, 10 and 30 nM, 48 hours, vs vehicle
Method: MV4-11 cells were seeded in 12-well plates at a concentration of 2 × 10^5 cells/well and cultured overnight. […] MOLM-13 cells were seeded in 12-well plates at a concentration of 1 × 10^5 cells/well and cultured overnight.
Cells were harvested and incubated with Guava® Nexin Reagent (Merck Millipore Corporation, Billerica, MA). Annexin-V-positive cells were assessed using a Guava® PCA microcytometer (Merck Millipore Corporation); the percentage of annexin-V-positive cells (2000 cells per sample) was analyzed using CytoSoft™ software (Merck Millipore Corporation). Mean percentages of annexin-V-positive cells were derived from three independent experiments.

[4] = table title day 21, Aza experiment: oral gilteritinib 30 mg/kg/day Days 0-16, IV Aza 3 mg/kg/day Days 0-4
[5] = Aza experiment: oral gilteritinib 3 mg/kg/day Days 0-20, IV Aza 3 mg/kg/day Days 0-4

| SMILES | Inhibition of Tumor Growth (MOLM-13 cells; [4]) [%] | body weight on Day 21 between control and treatment groups (MV4-11 cells [1]) | Regression of Tumor (MV4-11 cells [1]; Aza experiment) [%] | Inhibition of Tumor Growth (MV4-11 cells [1]; [5]) [%] | Inhibition of Tumor Growth (MOLM-13 cells; by Day 16, gilteritinib 30 mg/kg alone (both experiments)) [%] | Inhibition of Tumor Growth (MOLM-13 cells; table title day 21, AraC/IDR experiment: oral gilteritinib 30 mg/kg/day Days 0-15, IP AraC 50 mg/kg/day Days 0-4, IV IDR 0.5 mg/kg/day Days 0-2) [%] | Regression of Tumor (MV4-11 cells [1]; AraC/DNR experiment) [%] | Inhibition of Tumor Growth (MV4-11 cells [1]; AraC/DNR experiment: oral gilteritinib 3 mg/kg/day Days 0-20, IP AraC 50 mg/kg/day Days 0-4, IV DNR 2 mg/kg/day Days 0-2) [%] | Regression of Tumor (MV4-11 cells [1]; AraC/IDR experiment) [%] | Inhibition of Tumor Growth (MV4-11 cells [1]; AraC/IDR experiment: oral gilteritinib 3 mg/kg/day Days 0-20, IP AraC 50 mg/kg/day Days 0-4, IV IDR 0.5 mg/kg/day Days 0-2) [%] | mean (±SEM) tumor weight on Day 21 (MV4-11 cells [1]; AraC/DNR experiment, control 1.234±0.150 g) [g] | mean tumor weight on Day 21 (MV4-11 cells [1]; AraC/IDR experiment, control 1.64±0.12 g) [g] | mean proportion of MV4-11 cells in G1 phase (MV4-11 cells [2]; gilteritinib 3 nM) [%] | mean proportion of MV4-11 cells in G1 phase (MV4-11 cells [2]; gilteritinib 10 nM) [%] | proportion of annexin-V-positive cells (MV4-11 cells [3]) |
| --- | --- | --- | --- | --- | --- | --- | --- | --- | --- | --- | --- | --- | --- | --- | --- |
| Nc1ncn([C@@H]2O[C@H](CO)[C@@H](O)[C@H]2O)c(=O)n1 [Aza, Azacitidine] | 37 | No significant differences | 0 | 5 |  |  |  |  |  |  |  |  |  |  |  |
| CCc1nc(C(N)=O)c(Nc2ccc(N3CCC(N4CCN(C)CC4)CC3)c(OC)c2)nc1NC1CCOCC1 [Gilteritinib] | 90 | No significant differences | 0 | 71 | ≥ 90 | 93 | 0 | 78 | 0 | 85 | 0.441 ± 0.076 | 0.53 ± 0.09 | 69.0 | 70.7 | significantly increased |
